Laboratory results published in the CheMixHub viscosity set.
Values joined by “and” are separate entries in the source; they are usually repeats but may differ in a detail not shown here. Identical values can stand only once. ± gives the uncertainty stated by the source.

Experiment: xn = mol fraction of the nth substance listed

CCc1ccccc1 + c1ccccc1
Details	viscosity
293.15 K, 101.33 kPa, x2 = 0.2323	0.657 ± 0.0058 mPa·s
293.15 K, 101.33 kPa, x2 = 0.4707	0.646 ± 0.0057 mPa·s
293.15 K, 101.33 kPa, x2 = 0.5427	0.644 ± 0.0057 mPa·s
293.15 K, 101.33 kPa, x2 = 0.7124	0.635 ± 0.0057 mPa·s
293.15 K, 101.33 kPa, x2 = 0.8608	0.64 ± 0.0057 mPa·s
298.15 K, 101.3 kPa, x2 = 0.0268	0.632 ± 0.0054 mPa·s
298.15 K, 101.3 kPa, x2 = 0.1358	0.6249 ± 0.0053 mPa·s
298.15 K, 101.3 kPa, x2 = 0.2562	0.6202 ± 0.0053 mPa·s
298.15 K, 101.3 kPa, x2 = 0.3579	0.6177 ± 0.0053 mPa·s
298.15 K, 101.3 kPa, x2 = 0.4426	0.6157 ± 0.0053 mPa·s
298.15 K, 101.3 kPa, x2 = 0.5472	0.6134 ± 0.0052 mPa·s
298.15 K, 101.3 kPa, x2 = 0.6302	0.6115 ± 0.0052 mPa·s
298.15 K, 101.3 kPa, x2 = 0.7423	0.608 ± 0.0052 mPa·s
298.15 K, 101.3 kPa, x2 = 0.8318	0.6056 ± 0.0052 mPa·s
298.15 K, 101.3 kPa, x2 = 0.9404	0.6027 ± 0.0052 mPa·s
298.15 K, 101.33 kPa, x1 = 0.1	0.599 ± 0.016 mPa·s
298.15 K, 101.33 kPa, x1 = 0.2	0.601 ± 0.006 mPa·s and 0.601 ± 0.016 mPa·s
298.15 K, 101.33 kPa, x1 = 0.4	0.603 ± 0.016 mPa·s
298.15 K, 101.33 kPa, x1 = 0.5	0.607 ± 0.0061 mPa·s and 0.607 ± 0.016 mPa·s
298.15 K, 101.33 kPa, x1 = 0.6	0.608 ± 0.016 mPa·s
298.15 K, 101.33 kPa, x1 = 0.8	0.616 ± 0.017 mPa·s
298.15 K, 101.33 kPa, x2 = 0.145	0.6185 ± 0.0062 mPa·s
298.15 K, 101.33 kPa, x2 = 0.2147	0.6165 ± 0.0062 mPa·s
298.15 K, 101.33 kPa, x2 = 0.2942	0.6156 ± 0.0062 mPa·s
298.15 K, 101.33 kPa, x2 = 0.4187	0.6078 ± 0.0061 mPa·s
298.15 K, 101.33 kPa, x2 = 0.4944	0.6057 ± 0.0061 mPa·s
298.15 K, 101.33 kPa, x2 = 0.5926	0.6038 ± 0.006 mPa·s
298.15 K, 101.33 kPa, x2 = 0.6887	0.6029 ± 0.006 mPa·s
298.15 K, 101.33 kPa, x2 = 0.7786	0.6012 ± 0.006 mPa·s
298.15 K, 101.33 kPa, x2 = 0.8938	0.6006 ± 0.006 mPa·s
298.15 K, 101.33 kPa, x2 = 0.9568	0.6008 ± 0.006 mPa·s
303.15 K, 101.3 kPa, x2 = 0.1358	0.5881 ± 0.0051 mPa·s
303.15 K, 101.3 kPa, x2 = 0.2562	0.5827 ± 0.005 mPa·s
303.15 K, 101.3 kPa, x2 = 0.3579	0.5777 ± 0.005 mPa·s
303.15 K, 101.3 kPa, x2 = 0.4426	0.5744 ± 0.005 mPa·s
303.15 K, 101.3 kPa, x2 = 0.5472	0.571 ± 0.005 mPa·s
303.15 K, 101.3 kPa, x2 = 0.6302	0.5678 ± 0.005 mPa·s
303.15 K, 101.3 kPa, x2 = 0.7423	0.5637 ± 0.0049 mPa·s
303.15 K, 101.3 kPa, x2 = 0.8318	0.5608 ± 0.0049 mPa·s
303.15 K, 101.3 kPa, x2 = 0.9404	0.5574 ± 0.0049 mPa·s
303.15 K, 101.33 kPa, x2 = 0.2323	0.583 ± 0.0053 mPa·s
303.15 K, 101.33 kPa, x2 = 0.4707	0.57 ± 0.0052 mPa·s
303.15 K, 101.33 kPa, x2 = 0.5427	0.568 ± 0.0052 mPa·s
303.15 K, 101.33 kPa, x2 = 0.7124	0.56 ± 0.0051 mPa·s
303.15 K, 101.33 kPa, x2 = 0.8608	0.561 ± 0.0051 mPa·s
308.15 K, 101.33 kPa, x1 = 0.1	0.528 ± 0.014 mPa·s
308.15 K, 101.33 kPa, x1 = 0.2	0.53 ± 0.014 mPa·s
308.15 K, 101.33 kPa, x1 = 0.4	0.535 ± 0.014 mPa·s
308.15 K, 101.33 kPa, x1 = 0.6	0.542 ± 0.015 mPa·s
308.15 K, 101.33 kPa, x1 = 0.8	0.551 ± 0.015 mPa·s
313.15 K, 101.33 kPa, x2 = 0.2323	0.521 ± 0.0048 mPa·s
313.15 K, 101.33 kPa, x2 = 0.5427	0.506 ± 0.0047 mPa·s
313.15 K, 101.33 kPa, x2 = 0.7124	0.498 ± 0.0046 mPa·s
313.15 K, 101.33 kPa, x2 = 0.8608	0.493 ± 0.0046 mPa·s
318.15 K, 101.33 kPa, x1 = 0.1	0.468 ± 0.013 mPa·s
318.15 K, 101.33 kPa, x1 = 0.2	0.471 ± 0.013 mPa·s
318.15 K, 101.33 kPa, x1 = 0.4	0.477 ± 0.013 mPa·s
318.15 K, 101.33 kPa, x1 = 0.5	0.481 ± 0.013 mPa·s
318.15 K, 101.33 kPa, x1 = 0.6	0.484 ± 0.013 mPa·s
318.15 K, 101.33 kPa, x1 = 0.8	0.492 ± 0.013 mPa·s
318.15 K, 101.33 kPa, x2 = 0.145	0.4939 ± 0.0049 mPa·s
318.15 K, 101.33 kPa, x2 = 0.2147	0.4912 ± 0.0049 mPa·s
318.15 K, 101.33 kPa, x2 = 0.2942	0.4912 ± 0.0049 mPa·s
318.15 K, 101.33 kPa, x2 = 0.4187	0.4812 ± 0.0048 mPa·s
318.15 K, 101.33 kPa, x2 = 0.4944	0.4774 ± 0.0048 mPa·s
318.15 K, 101.33 kPa, x2 = 0.5926	0.4737 ± 0.0047 mPa·s
318.15 K, 101.33 kPa, x2 = 0.6887	0.469 ± 0.0047 mPa·s
318.15 K, 101.33 kPa, x2 = 0.7786	0.4657 ± 0.0047 mPa·s
318.15 K, 101.33 kPa, x2 = 0.8938	0.4621 ± 0.0046 mPa·s
318.15 K, 101.33 kPa, x2 = 0.9568	0.4607 ± 0.0046 mPa·s
323.15 K, 101.33 kPa, x1 = 0.1	0.44 ± 0.012 mPa·s
323.15 K, 101.33 kPa, x1 = 0.2	0.443 ± 0.0044 mPa·s and 0.443 ± 0.012 mPa·s
323.15 K, 101.33 kPa, x1 = 0.4	0.449 ± 0.012 mPa·s
323.15 K, 101.33 kPa, x1 = 0.5	0.453 ± 0.0045 mPa·s and 0.453 ± 0.012 mPa·s
323.15 K, 101.33 kPa, x1 = 0.6	0.456 ± 0.012 mPa·s
323.15 K, 101.33 kPa, x1 = 0.8	0.466 ± 0.013 mPa·s
323.15 K, 101.33 kPa, x2 = 0.2323	0.469 ± 0.0044 mPa·s
323.15 K, 101.33 kPa, x2 = 0.4707	0.456 ± 0.0043 mPa·s
323.15 K, 101.33 kPa, x2 = 0.5427	0.453 ± 0.0043 mPa·s
323.15 K, 101.33 kPa, x2 = 0.7124	0.443 ± 0.0042 mPa·s
323.15 K, 101.33 kPa, x2 = 0.8608	0.44 ± 0.0042 mPa·s

COC(C)(C)C + c1ccccc1
Details	viscosity [mPa·s]
293.15 K, 101.33 kPa, x1 = 0.0933	0.629 ± 0.033
293.15 K, 101.33 kPa, x1 = 0.1906	0.5805 ± 0.031
293.15 K, 101.33 kPa, x1 = 0.2994	0.5449 ± 0.029
293.15 K, 101.33 kPa, x1 = 0.3965	0.5122 ± 0.027
293.15 K, 101.33 kPa, x1 = 0.5143	0.4813 ± 0.025
293.15 K, 101.33 kPa, x1 = 0.6083	0.4593 ± 0.024
293.15 K, 101.33 kPa, x1 = 0.7015	0.4466 ± 0.024
293.15 K, 101.33 kPa, x1 = 0.8071	0.416 ± 0.022
293.15 K, 101.33 kPa, x1 = 0.9024	0.4052 ± 0.022
298.15 K, 101 kPa, x1 = 0.0502	0.566 ± 0.02
298.15 K, 101 kPa, x1 = 0.0999	0.551 ± 0.019
298.15 K, 101 kPa, x1 = 0.1994	0.499 ± 0.018
298.15 K, 101 kPa, x1 = 0.3005	0.473 ± 0.017
298.15 K, 101 kPa, x1 = 0.4006	0.457 ± 0.017
298.15 K, 101 kPa, x1 = 0.5003	0.437 ± 0.016
298.15 K, 101 kPa, x1 = 0.6	0.422 ± 0.016
298.15 K, 101 kPa, x1 = 0.7003	0.397 ± 0.015
298.15 K, 101 kPa, x1 = 0.8	0.395 ± 0.015
298.15 K, 101 kPa, x1 = 0.8997	0.376 ± 0.015
298.15 K, 101 kPa, x1 = 0.9497	0.372 ± 0.014
298.15 K, 101.33 kPa, x1 = 0.0933	0.5806 ± 0.031
298.15 K, 101.33 kPa, x1 = 0.1906	0.5446 ± 0.029
298.15 K, 101.33 kPa, x1 = 0.2994	0.5084 ± 0.027
298.15 K, 101.33 kPa, x1 = 0.3965	0.4776 ± 0.025
298.15 K, 101.33 kPa, x1 = 0.5143	0.4676 ± 0.025
298.15 K, 101.33 kPa, x1 = 0.6083	0.4417 ± 0.023
298.15 K, 101.33 kPa, x1 = 0.7015	0.4227 ± 0.022
298.15 K, 101.33 kPa, x1 = 0.8071	0.4037 ± 0.021
298.15 K, 101.33 kPa, x1 = 0.9024	0.398 ± 0.021
303.15 K, 101 kPa, x1 = 0.118	0.536 ± 0.004
303.15 K, 101 kPa, x1 = 0.2242	0.51 ± 0.004
303.15 K, 101 kPa, x1 = 0.3408	0.483 ± 0.004
303.15 K, 101 kPa, x1 = 0.5123	0.445 ± 0.003
303.15 K, 101 kPa, x1 = 0.6615	0.413 ± 0.003
303.15 K, 101 kPa, x1 = 0.8195	0.382 ± 0.003
